ChEMBL document CHEMBL3885881, “DrugMatrix”

Organism: Rattus norvegicus
Assay: DrugMatrix - Regimen: Daily Repeat
Assay type: toxicity, organism-based, Sprague-Dawley
Design: regimen Daily Repeat, gender Male, age 6-8 weeks
Settings: in vivo, po, route oral GAVAGE, vehicle 100 % WATER; for ABSOLUTE BASOPHIL / ABSOLUTE EOSINOPHIL / ABSOLUTE LYMPHOCYTE / ABSOLUTE MONOCYTE / ABSOLUTE SEGMENTED NEUTROPHIL / BASOPHIL / EOSINOPHIL / ERYTHROCYTE COUNT / HEMATOCRIT / HEMOGLOBIN / LEUKOCYTE COUNT / LYMPHOCYTE / MEAN CORPUSCULAR HEMOGLOBIN / MEAN CORPUSCULAR HEMOGLOBIN CONCENTRATION / MEAN CORPUSCULAR VOLUME / MONOCYTE / NEUTROPHIL / NUCLEATED RED BLOOD CELLS / PLATELET COUNT: tissue Blood; for ALANINE AMINOTRANSFERASE / ALBUMIN / ALKALINE PHOSPHATASE / ASPARTATE AMINOTRANSFERASE / BLOOD UREA NITROGEN / CARBON DIOXIDE / CHLORIDE / CHOLESTEROL / CREATINE PHOSPHOKINASE / CREATININE / GLUCOSE / LACTATE DEHYDROGENASE / LIPASE / PHOSPHORUS / POTASSIUM / SODIUM / TOTAL BILIRUBIN / TOTAL PROTEIN / URIC ACID: tissue Plasma
[1] = 15 mg/kg, 120 h, dose level Low, time 5 day
[2] = 79 mg/kg, 72 h, dose level High, time 3 day
[3] = 79 mg/kg, 120 h, dose level High, time 5 day

NNC(=O)c1ccncc1 [ISONIAZID]
ABSOLUTE BASOPHIL [1]: 0 CELLS/uL | ABSOLUTE EOSINOPHIL [1]: 0 CELLS/uL | ABSOLUTE LYMPHOCYTE [1]: 13245.33 CELLS/uL | ABSOLUTE MONOCYTE [1]: 507 CELLS/uL | ABSOLUTE SEGMENTED NEUTROPHIL [1]: 1614.33 CELLS/uL | BASOPHIL [1]: 0% | EOSINOPHIL [1]: 0% | ERYTHROCYTE COUNT [1]: 5.42 x10E6/uL | HEMATOCRIT [1]: 33.8% | HEMOGLOBIN [1]: 12.8 G/DL | LEUKOCYTE COUNT [1]: 15.37 x10E3/uL | LYMPHOCYTE [1]: 85% | MEAN CORPUSCULAR HEMOGLOBIN [1]: 23.67 pg | MEAN CORPUSCULAR HEMOGLOBIN CONCENTRATION [1]: 37.9 G/DL | MEAN CORPUSCULAR VOLUME [1]: 62.47 fL | MONOCYTE [1]: 3.33% | NEUTROPHIL [1]: 11.67% | NUCLEATED RED BLOOD CELLS [1]: 0 /100WBC | PLATELET COUNT [1]: 1239.67 x10E3/uL | ALANINE AMINOTRANSFERASE [1]: 47 u/L | ALBUMIN [1]: 4.33 G/DL | ALKALINE PHOSPHATASE [1]: 384.67 u/L | ASPARTATE AMINOTRANSFERASE [1]: 85 u/L | BLOOD UREA NITROGEN [1]: 16.67 mg/dL | CARBON DIOXIDE [1]: 23.67 mmol/L | CHLORIDE [1]: 102.67 MEQ/L | CHOLESTEROL [1]: 76 mg/dL | CREATINE PHOSPHOKINASE [1]: 246.67 u/L | CREATININE [1]: 0.47 mg/dL | GLUCOSE [1]: 188.33 mg/dL | LACTATE DEHYDROGENASE [1]: 93.67 u/L | LIPASE [1]: 11 u/L | PHOSPHORUS [1]: 11.47 mg/dL | POTASSIUM [1]: 5.97 MEQ/L | SODIUM [1]: 146 MEQ/L | TOTAL BILIRUBIN [1]: 0.23 mg/dL | TOTAL PROTEIN [1]: 6.3 G/DL | URIC ACID [1]: 2.17 mg/dL | ABSOLUTE BASOPHIL [2]: 0 CELLS/uL | ABSOLUTE EOSINOPHIL [2]: 46.33 CELLS/uL | ABSOLUTE LYMPHOCYTE [2]: 10642.67 CELLS/uL | ABSOLUTE MONOCYTE [2]: 65.33 CELLS/uL | ABSOLUTE SEGMENTED NEUTROPHIL [2]: 779 CELLS/uL | BASOPHIL [2]: 0% | EOSINOPHIL [2]: 0.33% | ERYTHROCYTE COUNT [2]: 6 x10E6/uL | HEMATOCRIT [2]: 38.67% | HEMOGLOBIN [2]: 14.03 G/DL | LEUKOCYTE COUNT [2]: 11.53 x10E3/uL | LYMPHOCYTE [2]: 91.67% | MEAN CORPUSCULAR HEMOGLOBIN [2]: 23.4 pg | MEAN CORPUSCULAR HEMOGLOBIN CONCENTRATION [2]: 36.3 G/DL | MEAN CORPUSCULAR VOLUME [2]: 64.47 fL | MONOCYTE [2]: 0.67% | NEUTROPHIL [2]: 7.33% | NUCLEATED RED BLOOD CELLS [2]: 0 /100WBC | PLATELET COUNT [2]: 1065.67 x10E3/uL | ALANINE AMINOTRANSFERASE [2]: 19 u/L | ALBUMIN [2]: 4.9 G/DL | ALKALINE PHOSPHATASE [2]: 349 u/L | ASPARTATE AMINOTRANSFERASE [2]: 74.33 u/L | BLOOD UREA NITROGEN [2]: 22.67 mg/dL | CARBON DIOXIDE [2]: 25.67 mmol/L | CHLORIDE [2]: 101.67 MEQ/L | CHOLESTEROL [2]: 80 mg/dL | CREATINE PHOSPHOKINASE [2]: 463.67 u/L | CREATININE [2]: 0.29 mg/dL | GLUCOSE [2]: 227.33 mg/dL | LACTATE DEHYDROGENASE [2]: 268 u/L | LIPASE [2]: 9.67 u/L | PHOSPHORUS [2]: 14.17 mg/dL | POTASSIUM [2]: 7.15 MEQ/L | SODIUM [2]: 146.23 MEQ/L | TOTAL BILIRUBIN [2]: 0.13 mg/dL | TOTAL PROTEIN [2]: 6.77 G/DL | URIC ACID [2]: 3.97 mg/dL | ABSOLUTE BASOPHIL [3]: 0 CELLS/uL | ABSOLUTE EOSINOPHIL [3]: 53 CELLS/uL | ABSOLUTE LYMPHOCYTE [3]: 13139.33 CELLS/uL | ABSOLUTE MONOCYTE [3]: 527.33 CELLS/uL | ABSOLUTE SEGMENTED NEUTROPHIL [3]: 647 CELLS/uL | BASOPHIL [3]: 0% | EOSINOPHIL [3]: 0.33% | ERYTHROCYTE COUNT [3]: 5.87 x10E6/uL | HEMATOCRIT [3]: 36.03% | HEMOGLOBIN [3]: 13.4 G/DL | LEUKOCYTE COUNT [3]: 14.37 x10E3/uL | LYMPHOCYTE [3]: 91.67% | MEAN CORPUSCULAR HEMOGLOBIN [3]: 22.8 pg | MEAN CORPUSCULAR HEMOGLOBIN CONCENTRATION [3]: 37.17 G/DL | MEAN CORPUSCULAR VOLUME [3]: 61.33 fL | MONOCYTE [3]: 3.67% | NEUTROPHIL [3]: 4.33% | NUCLEATED RED BLOOD CELLS [3]: 0.33 /100WBC | PLATELET COUNT [3]: 1389.67 x10E3/uL | ALANINE AMINOTRANSFERASE [3]: 28 u/L | ALBUMIN [3]: 4.37 G/DL | ALKALINE PHOSPHATASE [3]: 359.67 u/L | ASPARTATE AMINOTRANSFERASE [3]: 83.67 u/L | BLOOD UREA NITROGEN [3]: 17 mg/dL | CARBON DIOXIDE [3]: 24.67 mmol/L | CHLORIDE [3]: 102.33 MEQ/L | CHOLESTEROL [3]: 63.67 mg/dL | CREATINE PHOSPHOKINASE [3]: 505 u/L | CREATININE [3]: 0.21 mg/dL | GLUCOSE [3]: 173 mg/dL | LACTATE DEHYDROGENASE [3]: 177.33 u/L | LIPASE [3]: 10.33 u/L | PHOSPHORUS [3]: 12.07 mg/dL | POTASSIUM [3]: 6.62 MEQ/L | SODIUM [3]: 143.8 MEQ/L | TOTAL BILIRUBIN [3]: 0.17 mg/dL | TOTAL PROTEIN [3]: 6.3 G/DL | URIC ACID [3]: 2.17 mg/dL
